Measured values: US10874730B2, “Methods for treating brain cancer using il-13r alpha 2 peptide-based compositions” (University of Pittsburgh—Of the Commonwealth System of …, priority 2004, dated 2020)

Experiments:
[1] = target: T1, HLA-A2 (Homo sapiens, UniProt P04439, D140Y/D185E/D98H/E176V/E277Q/G131W/G231S/I119V/I121R/I166T/I218V/L300P/L318F/N151K/N90K/P208A/P217A/Q86G/Q94H/R138H/R169H/T345S); assay: HLA-A2 binding: surface expression of HLA-A2 on T2 cells by flow cytometry; conditions: 1 nM
T1 construct: expressed in transfected cells; host or cells: T2 cells
Method: The binding capability of these modified peptides was assessed using an HLA-A2 transfected T2 cell line. Aliquots of T2 cells were incubated with modified peptides or IL-13Rα2345-353 at 1 nM overnight, and then examined for the surface expression levels of HLA-A2 on T2 cells by flow cytometry. Since stable binding of HLA-A2 with peptide epitopes further stabilizes the surface expression of HLA-A2 (Francini et al., 2002; Alves et al., 2003), quantitative expression levels of HLA-A2, which is indicated by Mean Fluorescence Intensity (MFI) in Table 1, correlate with the binding affinity of the peptide-epitopes that are co-incubated with the T2 cells.

[2] = system: T2 cells loaded with the wild type IL-13Rα2345-353; assay: 4-hr 51Cr-release assay, peptide-induced CTL lines against peptide-loaded T2 cells; type: cell-based, human; conditions: for lysis of T2 target cells pulsed with 100 ng/ml wild type IL-13Rα2345-353 by peptide-stimulated T cells: CD8+ T cells of HLA-A*0201+ glioma patients stimulated with peptide-pulsed DCs, day 10, FIG. 1; for magnitude of CTL reactivity against T2 cells loaded with native IL-13Rα2345-353 compared with native or IL-13Rα2-E1V9: E/T ratio 12.5, P<0.01 vs native at 0.1 and 1 nM, FIG. 1
[3] = system: human glioma cells SNB19; assay: 4-hr 51Cr-release assay, peptide-induced CTL lines against glioma cells; type: cell-based; conditions: for lysis of SNB19 in comparison to the native IL-13Rα2345-353 peptide: each E/T ratio, FIG. 3; for anti-SNB19 glioma cell lytic activities on addition of cold T2 cells pulsed IL-13Rα2345-353: cold target competition, FIG. 4
Method: CD8+ cells derived from an HLA-A2+ glioma patient were stimulated with native IL-13Rα2345-353 (●), IL-13Rα2-V9 (∘), IL-13Rα2-A1V9 (Δ), or IL-13Rα2-E1V9 (X). On day 10, the cells were tested for lytic ability against human glioma cells SNB19 (A) and U-251 (B) (both are IL-13Rα+/HLA-A2+) using 4-Hr ^51 Cr-release assay.
The CTL lines induced with each peptide (control (A); Flu (B); IL-13Rα2345-353 (C); IL-13Rα2345-9V (D)) were incubated for 4 h with ^51Cr-labeled human glioma cell lines SNB19 at the indicated E:T ratios for evaluation of specific lytic ability (●). For the cold target inhibition assay, ^51Cr-labeled target SNB19 cells (1×10^3 cells/well) and cold T2 cells (1×10^4 cells/well) pulsed with (Δ) or without (∘) peptide IL-13Rα2345-353 were incubated with the CTLs.
The CTL lines induced with each peptide (control (A); Flu (B); IL-13Rα2345-353 (C); IL-13Rα2345-9V (D)) were incubated for 4 h with ^51Cr-labeled human glioma cell line SNB19 at the indicated E:T ratios for evaluation of specific lytic ability (●). Anti-HLA-A2 antibody (W6/32; 10 μg/ml) was added to block the function of HLA-A2 mediated recognition by the T cells (a).
(§1) The ability of modified peptides, such as IL-13Rα2-V9, to enhance the CTL activity against HLA-A2+ human glioma cells that endogenously expressed and presented IL-13Rα2-derived epitopes was examined. Human glioma cell lines U251 and SNB19 express HLA-A2 and IL-13Rα2, whereas human glioma cell line A172 expresses IL-13Rα2 but not HLA-A2 (Okano et al., 2002).
(§2) The lytic ability of the peptide-induced CTL lines against these glioma cells was examined using 4-hr ^51Cr-release assays.
To determine the specificity of the lytic activity, cold target competition experiments were performed by addition of non-radiolabeled (cold) T2 cells pulsed with IL-13Rα2345-353 peptide in the 4-h ^51Cr-release assay (FIG. 4).
Furthermore, anti-HLA-A2 antibody (W6/32) was used to block the HLA-A2 mediated signaling in the CTL reactivity.

[4] = system: human glioma cells U-251; assay: as above; type: cell-based; conditions: each E/T ratio, FIG. 3
Method: CD8+ cells derived from an HLA-A2+ glioma patient were stimulated with native IL-13Rα2345-353 (●), IL-13Rα2-V9 (∘), IL-13Rα2-A1V9 (Δ), or IL-13Rα2-E1V9 (X). On day 10, the cells were tested for lytic ability against human glioma cells SNB19 (A) and U-251 (B) (both are IL-13Rα+/HLA-A2+) using 4-Hr ^51 Cr-release assay. Against SNB19 glioma cells, p<0.05 at all E/T ratios for IL-13Rα2-V9 vs. native IL-13Rα2345-353 as well as IL-13Rα2-A1V9 vs. native IL-13Rα2345-353 by two-tailed Student-t tests. Against U251 glioma cells, p<0.05 at E/T ratio of 10 and 40 for IL-13Rα2-V9 vs. native IL-13Rα2345-353 as well as IL-13Rα2-A1V9 vs. native IL-13Rα2345-353 by two-tailed Student-t tests. […] The data presented represent one of three experiments with different donors with similar results.
as §1, §2

[5] = system: EL4-HHD-IL-13Rα2 cells; assay: Immunization of HHD mice, spleen cell cytotoxicity (4 hr 51Cr-release); type: in vivo; conditions: for specific CTL activity against EL4-HHD-IL-13Rα2 cells: 100 μg peptide s.c. in IFA with HBVcore128-140, FIG. 7; for magnitude of CTL activities in comparison to native IL-13Rα2345-353 against EL4-HHD-IL-13Rα2 cells: p<0.05 at all effector/target ratios
Method: (§3) Control animals received IFA containing HBV helper-peptide only. Eleven days after the last immunization, the animals were sacrificed, and 5×10^6 spleen cells (SPCs) were stimulated in vitro with the same peptide that was used for in vivo stimulation (10 μM). On day 6 of culture, the bulk populations were tested for specific cytotoxicity against the EL4-HHD cells expressing IL-13Rα2 or EL4-HHD pulsed with IL-13 Rα2345-353.
(§4) EL4-HHD-IL-13Rα2 and EL4-HHD were labeled with 100 μCi of ^51Cr for 60 min, plated in 96-well V-bottomed plates (3×10^3 cell/well). Labeled EL4-HHD were pulsed with IL-13Rα2345-353 (1 μM) at 37° C. for 2 h. Control target cells were pulsed with no peptides. Stimulated SPCs were then added as effector cells and incubated at 37° C. for 4 h. One hundred μl of supernatant were collected and radioactivity measured in a gamma counter.

[6] = system: gp100; assay: IFN-γ ELISPOT on patient PBMC, phase I/II trial; type: in vivo, human; conditions: both dose levels combined, Wilcoxon test
From the text: This study was designed to assess toxicity and the induction of immune and preliminary clinical responses of vaccinations with GAA-loaded αDC1 and administration of poly-ICLC (Hiltonol®, Oncovir, Inc.). The first course of vaccines consisted of 4 ultrasound-guided intranodal (i.n.) administrations of 1 or 3×10^7 αDC1/injections every 2 weeks (FIG. 19) rotating each of inguinal and axillary lymph node clusters to minimize the potential effects of injection-induced trauma in the microenvironment of the lymph nodes by repeating injections in short periods. The first 10 evaluable patients received 1×10^7 αDC1/injection (Dose Level 1), then 9 received 3×10^7 αDC1/injection (Dose Level 2). All patients received intramuscular (i.m.) injections with poly-ICLC (20 μg/kg) twice/week for 8 weeks starting on day 1. […]
Enzyme-linked immunosorbent spot (ELISPOT) assays were performed as described previously (see, e.g., Kirkwood et al, Clin. Cancer Res., 15:1443-1451, 2009) with slight modifications. Briefly, batched PBMC samples were evaluated simultaneously following in vitro stimulation with autologous, irradiated PBMC loaded with wild-type IL-13Rα345-353, EphA2883-891, GP100209-217 and YKL-40202-211 for a week. […]

[7] = Toxicity assessment (NCI Common Toxicity Criteria version 3.0), phase I/II trial; type: in vivo, human; conditions: Patient 6, following the 154th injection of poly-ICLC
From the text: This study was designed to assess toxicity and the induction of immune and preliminary clinical responses of vaccinations with GAA-loaded αDC1 and administration of poly-ICLC (Hiltonol®, Oncovir, Inc.). The first course of vaccines consisted of 4 ultrasound-guided intranodal (i.n.) administrations of 1 or 3×10^7 αDC1/injections every 2 weeks (FIG. 19) rotating each of inguinal and axillary lymph node clusters to minimize the potential effects of injection-induced trauma in the microenvironment of the lymph nodes by repeating injections in short periods. The first 10 evaluable patients received 1×10^7 αDC1/injection (Dose Level 1), then 9 received 3×10^7 αDC1/injection (Dose Level 2). All patients received intramuscular (i.m.) injections with poly-ICLC (20 μg/kg) twice/week for 8 weeks starting on day 1. […] Starting at Week 13, these patients were treated with the same dose of additional vaccinations every 4 weeks to a maximum of 5 vaccine injections and i.m. poly-ICLC starting on the day of the first additional vaccine and twice/week (1st booster phase).
The trial was monitored continuously for treatment-related AE using National Cancer Institute Common Toxicity Criteria version 3.0. […]

[8] = solution 2 mg per cc, room temperature; cited from earlier work
[9] = system: preclinical brain tumor models; conditions: Zhu et al., J. Transl. Med., 5: 10, 2007; cited from earlier work
[10] = Salazar et al., Neurosurgery, 38: 1096-1103, 1996; cited from earlier work
[11] = system: human glioma cells expressing HLA-A2 and EphA2 protein; assay: 4-hr 51Cr-release assay, EphA2883-891-stimulated CD8+ T cells against glioma cells; type: cell-based; conditions: stimulation with peptide-loaded DCs for 10 days, FIG. 9
Method: CD8+ T cells from an HLA-A2+ glioma patients were stimulated with DCs loaded with EphA2883-891 for 10 days. These T cells were then tested for their lytic activity against human glioma cells SNB19 (HLA-A2+, EphA2+) (▴), U251 (HLA-A2+, EphA2+) (▪) and A172 (HLA-A2−, EphA2+) (▾) by 4-hr ^51Cr-release assay.
EphA2 is an attractive tumor-associated antigen and a target for tumor-vaccines, as 5 HLA-A2 and 3 DR4 T cell epitopes have been previously identified (Tatsumi et al., 2003).

[12] = system: EL4-HHD cells pulsed with the native IL-13Rα2345-353; assay: Immunization of HHD mice, spleen cell cytotoxicity (4 hr 51Cr-release); type: in vivo; conditions: 100 μg peptide s.c. in IFA with HBVcore128-140; difference not statistically significant; FIG. 6
Method: as §3, §4

| Substance | binding affinity to HLA-A2 compared with the native IL-13Rα2345-353 [1] | lysis of T2 target cells pulsed with 100 ng/ml wild type IL-13Rα2345-353 by peptide-stimulated T cells [2] | magnitude of CTL reactivity against T2 cells loaded with native IL-13Rα2345-353 compared with native or IL-13Rα2-E1V9 [2] | lysis of SNB19 in comparison to the native IL-13Rα2345-353 peptide [3] | lysis of U-251 in comparison to the native IL-13Rα2345-353 peptide [4] | specific CTL activity against EL4-HHD-IL-13Rα2 cells [5] | magnitude of CTL activities in comparison to native IL-13Rα2345-353 against EL4-HHD-IL-13Rα2 cells [5] | anti-SNB19 glioma cell lytic activities on addition of cold T2 cells pulsed IL-13Rα2345-353 [3] | other results |
| --- | --- | --- | --- | --- | --- | --- | --- | --- | --- |
| ALPFGFILV (Amino acid residues 345-353 of Interleukin-13 Receptor alpha with mutation of W to A at position 345 and I to V at position 353) [A1V9] | higher | efficiently lysed | higher magnitude | higher levels of lysis | higher levels of lysis | induced a specific CTL activity | higher magnitude | – | – |
| IMDQVPFSV (Amino acid residues 209-217 of GP100 with mutation of T to M at position 210) [gp100 epitope] | – | – | – | – | – | – | – | – | magnitude of IFN-γ ELISPOT response among the GAA peptides tested [6]: highest magnitude of response |
| Polyinosinic-Polycytidylic acid stabilized with polylysine and carboxymethylcellulose [poly-ICLC] | – | – | – | – | – | – | – | – | adverse event during the 2nd booster phase considered to be DLT [7]: grade 2 systemic urticaria; stability [8]: stable at room temperature for several days; effect on vaccine effects [9]: enhance the vaccine effects; safety [10]: safe |
| TLADFDPRV (Amino acid residues 883-891 of EphA2) [EphA2883-891] | – | – | – | – | – | – | – | – | anti-glioma CTL reactivity of CD8+ cells from HLA-A2+ glioma patients [11]: anti-glioma CTL reactivity has been induced |
| WLPFGFILI (Amino acid residues 345-353 of Interleukin-13 Receptor alpha) [Native, reference compound] | – | efficiently lysed | – | – | – | induced a specific CTL activity | – | almost completely inhibited | – |
| WLPFGFILV (Amino acid residues 345-353 of Interleukin-13 Receptor alpha 2 with mutation of I to V at position 353) [V9, I was replaced with V at P9] | higher | efficiently lysed | higher magnitude | higher levels of lysis | higher levels of lysis | induced a specific CTL activity | higher magnitude | almost completely inhibited | CTL activities against T2 cells loaded with IL-13Rα2345-353 compared with the wild type-induced CTL line ([2]; 1, 10 and 100 nM peptide, E/T ratio=50, FIG. 2): higher CTL activities; antigen-specific CTL response in comparison to the wild type IL-13Rα2345-353 ([2]; E/T ratio of 50, 25 and 12.5): significantly higher level; CTL reactivity against EL4-HHD cells pulsed with the native peptide compared with other peptides examined [12]: trend toward higher levels of CTL reactivity |
